Assay results reported in patent US7973078B2, “Sulfonamide compound or salt thereof” (Astellas Pharma Inc., priority 2006, dated 2011).

Assays:
[1] = target: T1, rat EP1 receptor (Rattus norvegicus, UniProt P70597); experiment: Receptor antagonistic activity using cells expressing an EP1 receptor (PGE2-induced intracellular Ca change, FLIPR); assay type: cell-based; settings: HEK293 cells stably expressing rat EP1 receptors; 100 nM PGE2; Ca concentration in cells
T1 sequence (P70597 1-405): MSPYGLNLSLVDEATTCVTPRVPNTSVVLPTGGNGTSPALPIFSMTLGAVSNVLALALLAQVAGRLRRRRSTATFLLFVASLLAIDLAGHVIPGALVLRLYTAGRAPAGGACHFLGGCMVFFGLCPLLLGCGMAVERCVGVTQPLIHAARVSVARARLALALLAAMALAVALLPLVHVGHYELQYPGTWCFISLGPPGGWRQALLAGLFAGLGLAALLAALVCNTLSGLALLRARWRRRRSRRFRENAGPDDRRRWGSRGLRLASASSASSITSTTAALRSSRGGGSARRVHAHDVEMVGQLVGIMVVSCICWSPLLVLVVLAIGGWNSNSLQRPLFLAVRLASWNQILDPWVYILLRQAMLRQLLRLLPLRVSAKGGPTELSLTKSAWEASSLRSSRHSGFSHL
Procedure: 1. Experiment to Measure a Receptor Antagonistic Activity Using Cells Expressing an EP1 Receptor
HEK293 cells (American Type Culture Collection) that stably expressed rat EP1 receptors were dispensed onto a 96-well poly-D-lysine-coated plate (Product Name: Biocoat, PDL96W black/clear, Nippon Becton Dickinson) to a 2×10^4 cells/well at the day before the experiment, and incubated overnight at 37° C. under 5% carbon dioxide (CO2) in a culture medium containing 10% fetal bovine serum (FBS) (Product Name: DMEM, Invitrogen Corporation). The culture medium was replaced by a loading buffer (a washing solution containing a 4 μM fluorescent indicator (Product Name: Fluo3-AM, Tong Ren Tang Technologies Co. Ltd.):a Hank's balanced salt solution)(HBSS), 20 mM 2-[4-(2-hydroxyethyl)-1-piperazinyl]ethanesulfonic acid (HEPES)-sodium hydroxide (NaOH), 2.5 mM Probenecid, 0.1% bovine serum albumin (BSA)), and left to stand at room temperature for 3 hours, and the cells were washed using a plate washer in which a washing solution had been set up (Product Name: ELx405, BIO-TEK instrument Corporation). The compound that had been preliminarily dissolved and diluted in a washing solution was added thereto, and set up in a system for measuring a calcium (Ca) concentration in a cell (Product Name: FLIPR, Molecular Devices Corporation). After 5 minutes, PGE2 was added to a final concentration of 100 nM, and the change in Ca concentrations in cells was measured. A difference between a maximum value and a minimum value in Ca concentrations in cells was determined, and kept as measurement data. With a response upon addition of 100 nM PGE2 being set at […], and a response upon addition of a buffer being set at 100%, the concentration causing 50% inhibition was determined as an IC50 value.
In the table, Pre represents Preparative Example No. as described later, and Ex represent Example No. as described later.

[2] = target: T1, rat EP1 receptor; experiment: Receptor binding test using EP1 receptor-expressing cells (3H-PGE2 binding to membrane sample); design: expressed in transfected cells; host or cells: HEK293EBNA cells, pCEP4 vector, transient (2 days); crude membrane sample; settings: membrane of HEK293EBNA cells expressing rat EP1; 2.5 nM 3H-PGE2; Ki=IC50/(1+([C]/Kd))
Excerpt: (2) Receptor Binding Test Using EP1 Receptor-Expressing Cells
A signal peptide (MKTIIALSYIFCLVFA: SEQ ID NO: 1) and a FLAG sequence (DYKDDDDK: SEQ ID NO: 2) were introduced at the N-terminus of a rat EP1 receptor, followed by subcloning into an expression vector (Product Name: pCEP4, Invitrogen Corporation). An HEK293EBNA cell (American Type Culture Collection) was transfected with the rat EP1 expression vector using a transfection regent (Product Name: Fugene-6, Roche-Diagnostics, K.K), and then cultured for 2 days in a medium containing 10% FBS (Product Name: DMEM, Invitrogen Corporation) at 37° C. under 5% CO2. After culturing, the cells were recovered, treated with a cell lysate (20 mM Tris(hydroxymethyl)aminomethane (Tris)buffer pH7.5, 5 mM ethylene diaminetetraacetic acid(EDTA)), and ultracentrifuged (23,000 revolution, 25 minutes×2) for a rough preparation of a membrane sample.
A reaction solution containing the prepared membrane sample (15 μg) and ^3H-PGE2 (150 μl, composition: 10 mM 2-(N-morpholino)ethanesulfonic acid (MES)/potassium hydroxide(KOH) pH6.0, 1 mM EDTA, 10 mM magnesium chloride (MgCl2), 0.02% 3-[(3-Cholamidopropyl)dimethylammonio] propanesulfonate (CHAPS)) was incubated at room temperature for 1 hour. The reaction was terminated with an ice-cooled buffer, and suction-filtered under reduced pressure to trap the bound ^3H-PGE2 to a glass fiber filter (Product Name: UNIFILTER-96, GF/B, PerkinElmer Japan Co., Ltd.), so as to measure the radioactivity of the binding with a microplate scintillation counter (Product Name: TopCount, Packard) using Microscinti (Product Name: Microscinti 20, PerkElmer Japan Co., Ltd.).
The dissociation constant (Kd) and the maximum binding (Bmax) were determined using Scatchard plot (Annals of the New York Academy of Science, US, volume 51, page 660, 1949). Nonspecific bindings were determined as bindings in the presence of an excessive amount (2.5 μM) of label-free PGE2. The assessment of inhibitory effect on ^3H-PGE2 binding by the compound was carried out by adding 2.5 nM ^3H-PGE2 and the compound.
The inhibition constant Ki(nM) for each compound was obtained using the following formula: Ki=IC50/(1+([C]/Kd))
wherein [C] represents the concentration of ^3H-PGE2 employed in a reaction system.

Question: For Cc1ccc(S(=O)(=O)N(CC(=O)NCc2cccc(C(=O)O)c2)c2cccc(Cl)c2C)cc1 [Ex7], which IC50 [1] is on record?
Answer: 1.6 nM

Question: What about the Ki [2] of the same molecule?
Answer: 0.57 nM

Question: Which results are given for Cc1ccc(S(=O)(=O)N(CC(=O)NCc2cccc(OCC(=O)O)c2)c2cccc(Cl)c2C)cc1 [Ex16]?
Answer: IC50 [1]: 2.4 nM; Ki [2]: 1 nM

Question: Cc1ccc(S(=O)(=O)N(CC(=O)NCc2ccc(C(=O)NS(C)(=O)=O)cc2)c2cccc(Cl)c2C)cc1 [Ex20] was tested. Which IC50 [1] did it give?
Answer: 1.4 nM

Question: What about the Ki [2] of the same molecule?
Answer: 0.74 nM

Question: With COC(=O)c1ccc(CNC(=O)CN(c2cccc(Cl)c2C)S(=O)(=O)c2ccc(C)cc2)cc1 [Ex24] as the molecule, how does the IC50 [1] read?
Answer: 1 nM

Question: With Cc1ccc(S(=O)(=O)N(CC(=O)NCc2ccc(-n3cccn3)cc2)c2cccc(Cl)c2C)cc1 [Ex26] as the molecule, how does the IC50 [1] read?
Answer: 2.5 nM

Question: With COc1c(Cl)cccc1N(CC(=O)NCc1cccc(C(=O)O)c1)S(=O)(=O)c1ccc(C)cc1 [Ex38] as the molecule, how does the IC50 [1] read?
Answer: 1.5 nM

Question: What about the Ki [2] of the same molecule?
Answer: 0.48 nM

Question: Which results are given for CCc1c(Cl)cccc1N(CC(=O)NCc1cccc(C(=O)O)c1)S(=O)(=O)c1ccc(C)cc1 [Ex40]?
Answer: IC50 [1]: 0.72 nM; Ki [2]: 0.33 nM

Question: CCc1c(Cl)cccc1N(CC(=O)NCc1cccc(/C=C/C(=O)O)c1)S(=O)(=O)c1ccc(C)cc1 [Ex74] was tested. Which IC50 [1] did it give?
Answer: 1 nM

Question: What about the Ki [2] of the same molecule?
Answer: 0.35 nM

Question: With COc1ccc(CNC(=O)CN(c2cccc(Cl)c2C)S(=O)(=O)c2ccc(C)cc2)cc1 [Pre1, N^2-(3-chloro-2-methylphenyl)-N-(4-methoxybenzyl)-N^2-[(4-methylphenyl)sulfonyl] glycinamide] as the molecule, how does the IC50 [1] read?
Answer: 16 nM

Question: What about the Ki [2] of the same molecule?
Answer: 0.68 nM

Question: Cc1ccc(S(=O)(=O)N(CC(=O)NCc2ccncn2)c2cccc(Cl)c2C)cc1 [Pre15] was tested. Which IC50 [1] did it give?
Answer: 12 nM
